Calls of active or inactive are those of the source.
Tests used:
[1] = molecular target: T1, Short transient receptor potential channel 4 (Mus musculus, UniProt Q9QUQ5); assay: block of DAMGO-driven TRPC4 calcium entry – cell-based, HEK293 TRPC4/mu-opioid, Fluo-4 calcium, dose response (AID 434942); format: functional;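 also: potency of inhibitors blocking the TRPC4 calcium response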
T1 sequence (Q9QUQ5 whole entry): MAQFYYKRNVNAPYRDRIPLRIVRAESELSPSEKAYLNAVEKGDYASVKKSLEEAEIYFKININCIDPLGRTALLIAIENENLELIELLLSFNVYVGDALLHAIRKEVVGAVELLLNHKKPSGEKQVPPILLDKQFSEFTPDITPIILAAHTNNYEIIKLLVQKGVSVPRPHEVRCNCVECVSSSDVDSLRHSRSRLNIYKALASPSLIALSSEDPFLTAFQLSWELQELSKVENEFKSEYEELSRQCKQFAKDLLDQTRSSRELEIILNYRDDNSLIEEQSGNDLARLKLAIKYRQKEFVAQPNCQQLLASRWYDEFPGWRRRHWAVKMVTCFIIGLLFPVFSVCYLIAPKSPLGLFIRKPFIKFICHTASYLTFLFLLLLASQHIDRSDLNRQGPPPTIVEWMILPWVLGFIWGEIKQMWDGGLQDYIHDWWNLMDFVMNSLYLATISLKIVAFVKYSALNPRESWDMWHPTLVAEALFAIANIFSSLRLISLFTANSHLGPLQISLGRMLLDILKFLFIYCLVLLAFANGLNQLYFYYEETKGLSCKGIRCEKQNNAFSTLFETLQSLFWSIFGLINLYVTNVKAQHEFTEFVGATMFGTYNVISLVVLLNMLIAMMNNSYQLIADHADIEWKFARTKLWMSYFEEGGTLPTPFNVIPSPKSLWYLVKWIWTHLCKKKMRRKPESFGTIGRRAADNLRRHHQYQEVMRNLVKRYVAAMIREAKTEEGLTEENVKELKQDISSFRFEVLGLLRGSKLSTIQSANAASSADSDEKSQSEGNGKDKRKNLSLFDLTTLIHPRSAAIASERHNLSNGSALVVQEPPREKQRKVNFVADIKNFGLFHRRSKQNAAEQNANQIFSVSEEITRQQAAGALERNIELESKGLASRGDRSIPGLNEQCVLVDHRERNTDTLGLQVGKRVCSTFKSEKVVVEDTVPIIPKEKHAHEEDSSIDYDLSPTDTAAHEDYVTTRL

[2] = molecular target: T2, Corticotropin-releasing factor receptor 2/Corticotropin-releasing factor-binding protein (Homo sapiens, UniProt P24387+Q13324); assay: Dose Response confirmation of uHTS hits for small molecule antagonists of the CRF-binding protein and CRF-R2 receptor complex.; format: functional; settings: read-out: IC50_Mean
T2 sequence (Q13324 whole entry): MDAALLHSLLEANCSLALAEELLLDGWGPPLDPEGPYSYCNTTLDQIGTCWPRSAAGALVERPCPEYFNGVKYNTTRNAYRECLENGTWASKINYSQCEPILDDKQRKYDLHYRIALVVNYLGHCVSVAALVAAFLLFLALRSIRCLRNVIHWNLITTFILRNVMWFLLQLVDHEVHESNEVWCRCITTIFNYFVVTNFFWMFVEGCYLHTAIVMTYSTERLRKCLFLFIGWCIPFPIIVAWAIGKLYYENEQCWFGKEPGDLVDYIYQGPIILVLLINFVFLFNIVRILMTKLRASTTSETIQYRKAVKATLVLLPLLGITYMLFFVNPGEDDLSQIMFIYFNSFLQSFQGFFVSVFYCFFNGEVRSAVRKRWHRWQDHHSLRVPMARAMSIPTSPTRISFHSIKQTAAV
T2 sequence (P24387 whole entry): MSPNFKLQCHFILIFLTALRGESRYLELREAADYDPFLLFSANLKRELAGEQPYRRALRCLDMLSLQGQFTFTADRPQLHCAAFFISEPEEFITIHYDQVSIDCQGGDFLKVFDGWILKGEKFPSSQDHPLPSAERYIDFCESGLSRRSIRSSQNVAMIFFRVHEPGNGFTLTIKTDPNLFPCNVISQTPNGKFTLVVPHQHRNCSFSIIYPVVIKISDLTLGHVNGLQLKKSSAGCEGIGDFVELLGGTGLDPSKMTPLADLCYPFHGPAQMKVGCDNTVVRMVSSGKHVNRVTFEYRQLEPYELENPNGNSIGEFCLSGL

[3] = molecular target: T2, Corticotropin-releasing factor receptor 2/Corticotropin-releasing factor-binding protein; assay: activators of CRF receptor 2 with binding protein – uHTS hits, confirmation (AID 602473); format: functional; settings: read-out: EC50_Mean
[4] = molecular target: FAD-linked sulfhydryl oxidase ALR (Homo sapiens, UniProt P55789); assay: ALR-catalysed DTT oxidation blockers – biochemical, H2O2 detection, luminescence, cherry-pick, dose response (AID 493248)
Genome polyprotein = Genome polyprotein (dengue virus type 2, UniProt P29990); assay: flavivirus cap methylation enzyme inhibition – biochemical, confirmation dose response, primary screen (AID 588689); format: functional
Leucine aminopeptidase = molecular target: T3, Leucine aminopeptidase (Plasmodium falciparum 3D7, UniProt Q8IL11); assay: P. falciparum M17LAP inhibitors, primary screen, biochemical, fluorogenic H-Leu-NHMec substrate, 1536-well (AID 1619); format: functional
T3 sequence (Q8IL11 whole entry): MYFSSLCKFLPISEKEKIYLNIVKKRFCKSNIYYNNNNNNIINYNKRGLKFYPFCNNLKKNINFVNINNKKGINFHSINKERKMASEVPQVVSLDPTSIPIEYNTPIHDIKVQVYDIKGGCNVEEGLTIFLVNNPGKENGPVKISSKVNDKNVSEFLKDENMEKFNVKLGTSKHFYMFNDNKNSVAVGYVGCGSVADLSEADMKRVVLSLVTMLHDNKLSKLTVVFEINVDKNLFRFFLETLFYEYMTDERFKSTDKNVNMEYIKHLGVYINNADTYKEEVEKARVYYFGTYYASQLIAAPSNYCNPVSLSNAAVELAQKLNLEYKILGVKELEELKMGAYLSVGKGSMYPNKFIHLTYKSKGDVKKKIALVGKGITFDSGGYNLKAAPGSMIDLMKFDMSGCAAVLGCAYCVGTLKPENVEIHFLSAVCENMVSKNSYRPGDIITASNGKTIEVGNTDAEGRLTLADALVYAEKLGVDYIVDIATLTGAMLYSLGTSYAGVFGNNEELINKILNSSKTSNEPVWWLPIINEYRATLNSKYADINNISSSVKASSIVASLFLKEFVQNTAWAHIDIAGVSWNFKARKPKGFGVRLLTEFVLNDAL

Aminopeptidase N = molecular target: T4, Aminopeptidase N (Plasmodium falciparum FcB1/Columbia, UniProt O96935); assay: malaria alanyl aminopeptidase activity blockers – biochemical, fluorogenic H-Leu-NHMec substrate, 1536-well (AID 1445); design: species or system Plasmodium falciparum 3D7, 3D7
T4 sequence (O96935 whole entry): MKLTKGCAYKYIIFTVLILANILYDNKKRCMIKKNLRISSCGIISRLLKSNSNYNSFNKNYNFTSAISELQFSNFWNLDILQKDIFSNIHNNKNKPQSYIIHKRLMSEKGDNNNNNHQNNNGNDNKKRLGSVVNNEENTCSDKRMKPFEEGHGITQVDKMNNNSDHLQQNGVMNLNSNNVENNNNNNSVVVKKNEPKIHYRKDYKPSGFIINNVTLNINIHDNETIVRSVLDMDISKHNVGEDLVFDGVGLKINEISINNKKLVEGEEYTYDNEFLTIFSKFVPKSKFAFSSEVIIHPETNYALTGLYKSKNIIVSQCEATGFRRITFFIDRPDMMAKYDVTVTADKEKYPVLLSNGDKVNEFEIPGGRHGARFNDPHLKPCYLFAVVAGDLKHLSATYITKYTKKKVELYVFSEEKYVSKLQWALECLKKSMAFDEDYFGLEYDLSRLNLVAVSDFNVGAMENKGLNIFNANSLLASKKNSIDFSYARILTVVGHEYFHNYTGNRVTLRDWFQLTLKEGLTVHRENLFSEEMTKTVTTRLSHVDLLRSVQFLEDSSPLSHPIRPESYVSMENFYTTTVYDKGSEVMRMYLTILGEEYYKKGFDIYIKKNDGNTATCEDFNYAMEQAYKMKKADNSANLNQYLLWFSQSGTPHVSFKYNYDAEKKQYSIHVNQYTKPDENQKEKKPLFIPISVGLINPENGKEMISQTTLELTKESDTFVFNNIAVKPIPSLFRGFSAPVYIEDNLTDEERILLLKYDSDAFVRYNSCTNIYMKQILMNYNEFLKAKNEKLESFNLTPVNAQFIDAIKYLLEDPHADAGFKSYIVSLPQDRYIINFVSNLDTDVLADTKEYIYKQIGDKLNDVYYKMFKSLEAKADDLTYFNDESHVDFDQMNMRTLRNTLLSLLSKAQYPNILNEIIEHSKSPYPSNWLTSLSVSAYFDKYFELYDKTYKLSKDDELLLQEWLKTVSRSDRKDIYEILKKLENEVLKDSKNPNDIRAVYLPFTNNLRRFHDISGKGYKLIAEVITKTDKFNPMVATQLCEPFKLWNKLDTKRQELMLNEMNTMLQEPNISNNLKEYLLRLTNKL

[5] = molecular target: Induced myeloid leukemia cell differentiation protein Mcl-1 (Homo sapiens, UniProt Q07820); format: functional
Nonstructural protein 1 = Nonstructural protein 1 (Influenza A virus, UniProt Q194T2); format: functional, Influenza A virus (A/California/07/2009(H1N1))
[6] = molecular target: T5, Rac GTPase-activating protein 1 (Homo sapiens, UniProt Q9H0H5); assay: blockers of MgcRacGAP-driven Rac1 GTP hydrolysis – biochemical, ADP Hunter fluorescence, primary and confirmatory, confirmation (AID 624330); format: functional
T5 sequence (Q9H0H5 whole entry): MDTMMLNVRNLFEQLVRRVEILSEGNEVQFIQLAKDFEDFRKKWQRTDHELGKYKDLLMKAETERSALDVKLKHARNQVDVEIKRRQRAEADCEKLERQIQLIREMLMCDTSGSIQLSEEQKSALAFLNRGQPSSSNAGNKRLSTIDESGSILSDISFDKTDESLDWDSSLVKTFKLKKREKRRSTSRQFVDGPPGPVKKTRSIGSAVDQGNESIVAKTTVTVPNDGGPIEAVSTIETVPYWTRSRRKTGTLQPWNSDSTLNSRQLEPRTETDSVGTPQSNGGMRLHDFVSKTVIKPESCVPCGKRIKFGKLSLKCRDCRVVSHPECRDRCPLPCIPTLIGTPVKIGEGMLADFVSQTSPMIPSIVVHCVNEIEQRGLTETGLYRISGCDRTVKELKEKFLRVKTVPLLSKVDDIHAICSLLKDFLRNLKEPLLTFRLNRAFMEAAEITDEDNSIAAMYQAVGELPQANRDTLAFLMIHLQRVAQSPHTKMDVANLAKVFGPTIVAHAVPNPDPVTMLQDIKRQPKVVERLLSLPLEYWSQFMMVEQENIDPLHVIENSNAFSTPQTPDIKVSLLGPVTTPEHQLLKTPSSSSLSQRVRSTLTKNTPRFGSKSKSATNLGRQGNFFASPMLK

Chain of FAD-linked sulfhydryl oxidase ALR (P55789 whole entry): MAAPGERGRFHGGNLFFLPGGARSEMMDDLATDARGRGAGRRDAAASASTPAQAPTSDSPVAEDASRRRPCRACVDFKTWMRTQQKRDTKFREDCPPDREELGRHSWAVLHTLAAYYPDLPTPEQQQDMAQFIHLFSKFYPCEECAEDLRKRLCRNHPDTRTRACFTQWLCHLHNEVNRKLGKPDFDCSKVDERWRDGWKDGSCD
Chain of Genome polyprotein (P29990 2492-3391 limits assumed): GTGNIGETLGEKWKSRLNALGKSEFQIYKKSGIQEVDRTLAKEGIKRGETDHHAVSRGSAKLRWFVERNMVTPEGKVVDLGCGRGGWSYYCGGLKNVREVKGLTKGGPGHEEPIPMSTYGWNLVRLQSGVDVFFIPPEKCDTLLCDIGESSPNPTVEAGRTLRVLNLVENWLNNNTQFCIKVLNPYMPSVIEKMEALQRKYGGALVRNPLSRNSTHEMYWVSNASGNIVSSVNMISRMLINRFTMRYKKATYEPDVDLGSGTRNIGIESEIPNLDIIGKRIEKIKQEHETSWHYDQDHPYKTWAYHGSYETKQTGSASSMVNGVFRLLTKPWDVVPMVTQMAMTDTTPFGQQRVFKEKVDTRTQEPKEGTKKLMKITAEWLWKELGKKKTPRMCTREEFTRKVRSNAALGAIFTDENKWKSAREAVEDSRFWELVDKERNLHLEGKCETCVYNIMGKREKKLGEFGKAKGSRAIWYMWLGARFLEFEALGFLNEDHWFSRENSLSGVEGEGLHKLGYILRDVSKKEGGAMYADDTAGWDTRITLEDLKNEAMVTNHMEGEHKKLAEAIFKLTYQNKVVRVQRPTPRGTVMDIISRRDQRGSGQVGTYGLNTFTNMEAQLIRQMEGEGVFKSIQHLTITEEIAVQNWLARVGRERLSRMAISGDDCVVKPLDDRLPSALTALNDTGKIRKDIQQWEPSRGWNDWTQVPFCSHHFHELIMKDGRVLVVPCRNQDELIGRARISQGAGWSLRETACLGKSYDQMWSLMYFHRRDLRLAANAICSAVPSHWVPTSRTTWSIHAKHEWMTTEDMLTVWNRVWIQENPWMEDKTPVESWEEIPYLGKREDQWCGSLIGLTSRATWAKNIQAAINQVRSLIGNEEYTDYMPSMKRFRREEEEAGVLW
Chain of Induced myeloid leukemia cell differentiation protein Mcl-1 (Q07820 whole entry): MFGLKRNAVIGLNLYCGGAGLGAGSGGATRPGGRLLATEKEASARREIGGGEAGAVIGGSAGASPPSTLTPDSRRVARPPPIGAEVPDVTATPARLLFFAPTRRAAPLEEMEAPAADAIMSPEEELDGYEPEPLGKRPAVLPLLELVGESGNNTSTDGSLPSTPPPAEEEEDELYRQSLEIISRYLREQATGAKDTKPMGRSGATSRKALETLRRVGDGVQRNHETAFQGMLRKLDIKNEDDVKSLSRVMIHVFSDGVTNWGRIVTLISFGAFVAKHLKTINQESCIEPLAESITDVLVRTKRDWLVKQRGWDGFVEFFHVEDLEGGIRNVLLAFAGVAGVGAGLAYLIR
Chain of Nonstructural protein 1 (Q194T2 whole entry): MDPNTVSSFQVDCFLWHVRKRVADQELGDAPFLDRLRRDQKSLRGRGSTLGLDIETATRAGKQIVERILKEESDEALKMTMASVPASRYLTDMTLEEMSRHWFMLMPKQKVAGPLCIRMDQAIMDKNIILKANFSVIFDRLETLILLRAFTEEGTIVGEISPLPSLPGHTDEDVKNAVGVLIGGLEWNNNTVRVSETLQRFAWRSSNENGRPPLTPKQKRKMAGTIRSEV

| SMILES | EC50 [1] | AC50 [4] | also measured |
| --- | --- | --- | --- |
| COc1ccccc1N(C(=O)c1snc(C(N)=O)c1N)C(C(=O)NCc1ccccc1)c1ccc(C)o1 (configuration not stated) | 0.944 µM (active) |  |  |
| c1ccc2c(c1)nnn2-c1ncnc2sc3c(c12)CCCC3 | 6.68 µM (active) |  | IC50 [2]: > 47.1 µM (inactive); EC50 [3]: > 53 µM (inactive) |
| CCc1cc(C(=O)c2ccc(OC)cc2)c(NC(=O)CC(C)(C)CC(=O)O)s1 |  | 4.26 µM (active) |  |
| CCN(CC)c1ccc(NC(=O)CN2CCN(CC(=O)Nc3ccccc3F)CC2)cc1 |  | 1.18 µM (active) |  |
| COc1ccc(NC(=S)NNc2ccc(S(=O)(=O)Nc3ccccc3C(=O)O)cc2[N+](=O)[O-])cc1 |  |  | IC50 (Genome polyprotein): 15.8 µM (active); IC50 (Leucine aminopeptidase): 4.33 µM (active); IC50 (Aminopeptidase N): 4.17 µM (active); IC50 [5]: 3.37 µM (not active); IC50 (Nonstructural protein 1): 31.7 µM (active) |
| CC(NC(=O)c1cccc(N(C)C)c1)c1ccc(-n2ccnc2)cc1 (configuration not stated) |  | 9.59 µM (active) |  |
| O=C(Nc1ccc(O)cc1)c1ccc(C(=O)c2ccccc2)o1 |  | 2.25 µM (active) | IC50 [6]: 19.5 µM (active) |
| CC(CN(C)C)CN1c2ccccc2Sc2ccccc21 (configuration not stated) |  | 1.25 µM (active) |  |
| COc1ccccc1CNCc1ccc(OC)c2ccccc12 | 5.31 µM (active) |  |  |
| C/C(=N/NS(=O)(=O)c1ccc(Br)cc1)c1ccc(C)o1 |  | 15.4 µM (active) |  |

Reference: ChEMBL document CHEMBL1201862, “PubChem BioAssay data set” (2004)
